# Measurements published in ChEMBL document CHEMBL6078687 (J Med Chem, 2024).
# Assays:
# [1] = Cytotoxicity against MDCK cells incubated for 48 hrs by MTT assay; assay type: toxicity, cell-based, Canis lupus familiaris; conditions: dog
# [2] = Inhibition of neuraminidase in Influenza A virus A/Babol/36/2005 H3N2 using MUNANA as substrate incubated for 40 mins by […] based assay
# [3] = Inhibition of neuraminidase in Influenza A virus A/Goose/Guangdong/SH7/2013 H5N1 using MUNANA as substrate incubated for 40 mins by […] based assay
# [4] = Cytotoxicity against CEF cells incubated for 48 hrs by CCK8 assay; assay type: toxicity, cell-based, Gallus gallus; conditions: chicken
# [5] = test system: Influenza A virus; test: Antiviral activity against Influenza A virus A/WSN/67/05 H3N2 infected in MDCK cells assessed as inhibition of plaque formation measured after 2 days; conditions: A/WSN/67/05 H3N2, MDCK, 48 h
# [6] = Metabolic stability in human plasma assessed as compound remaining at 2 uM incubated upto 120 mins by LC-MS/MS analysis; assay type: ADME, cell-free; conditions: read-out: Stability
# [7] = Metabolic stability in human plasma assessed as half life at 2 uM incubated upto 120 mins by LC-MS/MS analysis; assay type: ADME, cell-free
# [8] = Metabolic stability in human liver microsomes assessed as compound remaining incubated for 60 mins by LC-MS/MS analysis; assay type: ADME, Microsome; conditions: 1 h
# [9] = Half life in Sprague-Dawley rat at 2 mg/kg, iv measured for 15 to 1440 mins by LC-MS/MS analysis; assay type: ADME, organism-based; conditions: in vivo, time 15-1440 min
# [10] = Tmax in Sprague-Dawley rat at 2 mg/kg, iv measured for 15 to 1440 mins by LC-MS/MS analysis; assay type: ADME, organism-based; conditions: in vivo, time 15-1440 min
# [11] = Cmax in Sprague-Dawley rat at 2 mg/kg, iv measured for 15 to 1440 mins by LC-MS/MS analysis; assay type: ADME, organism-based; conditions: in vivo, time 15-1440 min
# [12] = Apparent volume of distribution in Sprague-Dawley rat at 2 mg/kg, iv measured for 15 to 1440 mins by LC-MS/MS analysis; assay type: ADME, organism-based; conditions: in vivo, time 15-1440 min, read-out: Vz
# [13] = Clearance in Sprague-Dawley rat at 2 mg/kg, iv measured for 15 to 1440 mins by LC-MS/MS analysis; assay type: ADME, organism-based; conditions: in vivo, time 15-1440 min
# [14] = MRT (0 to t) in Sprague-Dawley rat at 2 mg/kg, iv measured for 15 to 1440 mins by LC-MS/MS analysis; assay type: ADME, organism-based; conditions: in vivo, time 15-1440 min
# [15] = MRT (0 to infinity) in Sprague-Dawley rat at 2 mg/kg, iv measured for 15 to 1440 mins by LC-MS/MS analysis; assay type: ADME, organism-based; conditions: in vivo, time 15-1440 min
# [16] = Half life in Sprague-Dawley rat at 20 mg/kg, po measured for 15 to 1440 mins by LC-MS/MS analysis; assay type: ADME, organism-based; conditions: in vivo, time 15-1440 min
# [17] = Tmax in Sprague-Dawley rat at 20 mg/kg, po measured for 15 to 1440 mins by LC-MS/MS analysis; assay type: ADME, organism-based; conditions: in vivo, time 15-1440 min
# [18] = Cmax in Sprague-Dawley rat at 20 mg/kg, po measured for 15 to 1440 mins by LC-MS/MS analysis; assay type: ADME, organism-based; conditions: in vivo, time 15-1440 min
# [19] = MRT (0 to t) in Sprague-Dawley rat at 20 mg/kg, po measured for 15 to 1440 mins by LC-MS/MS analysis; assay type: ADME, organism-based; conditions: in vivo, time 15-1440 min
# [20] = MRT (0 to infinity) in Sprague-Dawley rat at 20 mg/kg, po measured for 15 to 1440 mins by LC-MS/MS analysis; assay type: ADME, organism-based; conditions: in vivo, time 15-1440 min
# [21] = Oral bioavailability in Sprague-Dawley rat at 20 mg/kg measured for 15 to 1440 mins by LC-MS/MS analysis; assay type: ADME, organism-based; conditions: in vivo, time 15-1440 min
# [22] = Acute toxicity in Kunming mouse assessed as animal mortality at 1000 mg/kg, IG measured for 1 week; assay type: organism-based; conditions: in vivo, po, 168 h, time 1 weeks
# [23] = Acute toxicity in Kunming mouse assessed as signs of sedation at 1000 mg/kg, IG measured for 1 week; assay type: organism-based; conditions: in vivo, po, 168 h, time 1 weeks
# [24] = Acute toxicity in Kunming mouse assessed as signs of convulsion movements at 1000 mg/kg, IG measured for 1 week; assay type: organism-based; conditions: in vivo, po, 168 h, time 1 weeks
# [25] = Acute toxicity in Kunming mouse assessed as signs of appetite loss at 1000 mg/kg, IG measured for 1 week; assay type: organism-based; conditions: in vivo, po, 168 h, time 1 weeks
# [26] = Acute toxicity in Kunming mouse assessed as signs of disheveled fur at 1000 mg/kg, IG measured for 1 week; assay type: organism-based; conditions: in vivo, po, 168 h, time 1 weeks
# [27] = Acute toxicity in Kunming mouse assessed as increase in body weight at 1000 mg/kg, IG measured for 1 week; assay type: organism-based; conditions: in vivo, po, 168 h, time 1 weeks
# [28] = Acute toxicity in Kunming mouse assessed as drug tolerance at 1000 mg/kg, IG measured for 1 week; assay type: organism-based; conditions: in vivo, po, 168 h, time 1 weeks
# [29] = in vivo; conditions: Sprague-Dawley, rat, iv, 2 mg/kg
# [30] = in vivo; conditions: Sprague-Dawley, rat, iv, 2 mg/kg; remark: listed apart in the source
# [31] = in vivo; conditions: Sprague-Dawley, rat, po, 20 mg/kg
# [32] = in vivo; conditions: Sprague-Dawley, rat, po, 20 mg/kg; remark: listed apart in the source
# [33] = in vitro; conditions: human, liver microsomes
# [34] = in vitro; conditions: human, liver microsomes; remark: listed apart in the source
# [35] = test system: Influenza A virus; test: microbe, parasite or virus in culture; conditions: A/Goose/Guangdong/SH7/2013 H5N1, CEF, 48 h
# [36] = test system: Influenza A virus; test: microbe, parasite or virus in culture; conditions: A/Goose/Jiangsu/1306/2014 H5N8, CEF, 48 h
# [37] = test system: Influenza A virus; test: microbe, parasite or virus in culture; conditions: A/PR/8/34 H1N1, MDCK, 48 h
SMILES,EC50 at 48 h [1],IC50 [2],IC50 [3],CC50 at 48 h [4],EC50 [5],"remaining at 2 h, 2 µM [6]",half-life at 2 µM [7],Stability [8],half-life [9],Tmax [10],Cmax [11],Vd [12],clearance [13],MRT last [14],MRT inf [15],half-life [16],Tmax [17],Cmax [18],MRT last [19],MRT inf [20],also measured
CCC(CC)O[C@@H]1C=C(C(=O)O)C[C@H](NCc2ccc(OCc3cccc(B(O)O)c3)cc2C)[C@H]1NC(C)=O,> 250 µM,0.47 µM,0.09 µM,> 200 µM,67.5 µM,99.3%,> 289 min,112.2%,15 min,4.98 min,4850 ng/mL,0.511 L/kg,24.8 mL/min/kg,7.8 min,7.8 min,78.6 min,1320 min,10.4 ng/mL,48.6 min,117 min,bioavailability [21]: 0.15%; Activity [22]: Non-toxic; Activity [23]: Non-toxic; Activity [24]: Non-toxic; Activity [25]: Non-toxic; Activity [26]: Non-toxic; Activity [27]: Toxic; Activity [28]: Non-toxic; AUC(0-t) [29]: 1370 ng·h/mL; AUC(0-inf) [30]: 1380 ng·h/mL; AUC(0-t) [31]: 12.7 ng·h/mL; AUC(0-inf) [32]: 20.3 ng·h/mL; microsomal CLint at 2 h [33]: 11.2 µL/min/mg; CLint scaled at 2 h [34]: 10.1 mL/min/kg; EC50 [35]: 1.29 µM; EC50 [36]: 1.27 µM; EC50 [37]: 0.008 µM
CCC(CC)O[C@@H]1C=C(C(=O)O)C[C@H](NCc2ccc(OCc3cccc(B(O)O)c3)cc2Cl)[C@H]1NC(C)=O,> 250 µM,0.26 µM,0.017 µM,> 200 µM,> 100 µM,104%,> 289 min,98.6%,16.8 min,4.98 min,2520 ng/mL,1.12 L/kg,45.5 mL/min/kg,9.6 min,10.2 min,41.4 min,15 min,57.5 ng/mL,46.8 min,54.6 min,bioavailability [21]: 0.65%; Activity [22]: Non-toxic; Activity [23]: Non-toxic; Activity [24]: Non-toxic; Activity [25]: Non-toxic; Activity [26]: Non-toxic; Activity [27]: Toxic; Activity [28]: Non-toxic; AUC(0-t) [29]: 747 ng·h/mL; AUC(0-inf) [30]: 749 ng·h/mL; AUC(0-t) [31]: 47 ng·h/mL; AUC(0-inf) [32]: 48.8 ng·h/mL; microsomal CLint at 2 h [33]: 13.6 µL/min/mg; CLint scaled at 2 h [34]: 12.2 mL/min/kg; EC50 [35]: 5.41 µM; EC50 [36]: 3.26 µM; EC50 [37]: 0.008 µM
